Columns and labels:
PC-3 cells [1] = test: clonogenicity assay (colony formation); type: cell-based, human
Procedure: The synthetic decapeptide (SEQ ID NO: 3) has been shown herein to mimic the biological activity of native PSP94 (nPSP94) (SEQ ID NO: 1) and therefore its effect on the PC-3 cells was studied in clonogenicity assay (colony formation). Cells were seeded in Costar 96 well cell culture flat bottom plates in RPMI supplemented media containing 50 μg/ml of bovine serum albumin (BSA) and 0.1 μM FeSO4. Clonogenicity was evaluated for PC-3 cells grown in the presence of various concentration of the decapeptide after 9 days of culture (FIG. 4a). A parallel experiment was performed with various concentration of nPSP94 using the same experimental conditions (FIG. 4b). Other experiments evaluating clonogenicity was performed with the decapeptide (FIG. 5a) or nPSP94 (FIG. 5b) after 21 days of culture as well as after 10 days of culture (FIG. 6a: Decapeptide and FIG. 6b: nPSP94).

[2] = tested on: PC-3 human prostate tumor; test: PC-3 human prostate tumor in nude mice, subcutaneous treatment for 14 days (Examples 10 and 11); type: in vivo, Nude mouse; conditions: 10 μg/kg body weight per day s.c.
Procedure: PC-3 human prostate tumor was obtained from ATCC (ATCC 1435). PC-3 cells were grown in RPMI media containing 10% (v/v) of fetal calf serum and were harvested in the logarithmic phase of growth by trypsinization. Cells were centrifuged at 1200 rotation per minute (rpm) and washed three timed with Hanks balanced salt solution (HBSS). Following washing, cells were counted and adjusted to a concentration of 1×10^7 cells/ml in HBSS. A 0.1 ml volume of tumor cell inoculum containing 1×10^6 cells was administered subcutaneously into the two opposite flank region of each Nude mouse (Nu/Nu, BALE/c background). Tumor growth was monitored for approximately 18 days. Once tumor growth has been established (volume of tumor reached a volume of 50 mm^3) treatment with rHuPSP94 (SEQ ID NO: 2) was initiated and was performed once a day for 14 days by the subcutaneous route. Based on the assigned treatment groups illustrated in table 4.
PC-3 human prostate tumor (ATCC 1435) obtained from ATCC was implanted bilaterally into nude mice and tumor growth was monitored for approximately 18 days. PC-3 cells were injected once subcutaneously into each flank of the mice. Once tumor growth has been established (i.e., volume of tumor reached 0.25 to 0.50 cm^3) the treatment with decapeptide (SEQ ID NO: 3), native PSP94 (SEQ ID NO: 1) and control scrambled polypeptide PB111 was initiated and was performed once a day for 14 days by the subcutaneous route based on the treatment groups (randomly assigned) illustrated in table 5.

[3] = tested on: human prostate cancer cells PC-3; test: MTS assay, growth inhibitory effect on PC-3 cells; type: cell-based; conditions: 72 hours
From the text: Cell proliferation was monitored on PC-3 cells using the MTS/PMS (phenazine methosulfate) kit (Promega), which primarily measures mitochondrial activity of live cells. The basic principle of this method involves the fact that the mitochondrial enzymes of the live cells metabolize the MTS/PMS dyes forming a brown colored precipitate which can be measured as optical density (OD) by absorption at 490 nm in a spectrophotometer. Therefore, the OD values are proportional to the number of living cells. In addition, monitoring of cell morphology was also performed. Cell morphology would be indicative of their health status. For example, viable cells would appear adherent and spread out whereas dead cells would be in suspension in the media and would appear granular and round.
PC-3 cells (ATCC, Lot AT06) used in these experiments were at a passage number lower or equal to 70 (n≧70). Cells were seeded in Costar 96 well cell culture flat bottom plates in RPMI supplemented media containing 50 μg/ml of bovine serum albumin (BSA) and 0.1 μM FeSO4. Peptide was diluted in the same media. Cells were continuously exposed to the polypeptides of the present invention for 72 hours without changing media. Native PSP94 or rHuPSP94 concentrated two fold were directly added to wells and diluted to 1× in order to minimize cell manipulation and avoid detachment.
Native PSP94, rHuPSP94, polypeptide 22-36 and PB111 polypeptide (scrambled polypeptide) were also included in this experiment as controls. Cell proliferation assay was performed on either PC-3 cells or normal fibroblasts (used here as control) using the MTS/PMS kit (Promega). Four thousand cells (FIGS. 9 and 10) or three thousand (FIG. 11) cells were seeded in Costar 96 well cell culture flat bottom plates in RPMI supplemented media containing 50 μg/ml of bovine serum albumin (BSA) and 0.1 μM FeSO4. In addition, monitoring of cell morphology was also performed.
This assay measures the mitochondrial activity of the live cells. The basic principle of this method involves the fact that the mitochondrial enzymes of the live cells metabolize the MTS/PMS dyes forming a brown colored precipitate which can be measured as optical density (OD) by absorption at 490 nm in a spectrophotometer. Therefore, the OD values are proportional to the number of living cells.
In addition, a visual observation of the cells was also done to check the cell morphology, which could also be indicative of cell growth. The following conditions for MTS assay were used: PC-3 (ATCC, Lot AT06), passage number n≧70, cell line adapted to grow in serum-free OPTI-MEM and in RPMI supplemented with BSA (50 μg/ml) and Ferrous Sulfate (0.1 μM), continuous exposure for up to 72 hours without changing media (i.e., adding PCK3145 at 2× concentration directly to wells and diluting it 1:2 to 1× to minimize cell manipulation and avoid detachment).

PC-3 cells [4] = test: DNA fragmentation assay (DNA ladder, apoptosis); type: cell-based, human; conditions: various concentrations, 72 hours
Procedure: Cell apoptosis result in DNA fragmentation can be evaluated by the presence of a DNA ladder visualized when DNA is run on a 1.2% agarose gel. DNA ladder assay (apoptosis assay) was performed following exposure of PC-3 to various concentrations of the polypeptides for 72 hours. The polypeptides that were used in this particular experiment are polypeptide 7-21 (SEQ ID NO: 4), polypeptide PCK3145 (SEQ ID NO: 5) and polypeptide 76-94 (SEQ ID NO: 6). […] This effect was especially evident following treatment with PCK3145 (SEQ ID NO: 5), which is illustrated by FIG. 7. Lane 1 of the gel illustrated in FIG. 7 represents a lambda HindIII digest standard.
Apoptosis of PC-3 cells, following a 72 hours exposure to PCK3145 at 500 μg/ml concentration, was evaluated in supplemented media by DNA fragmentation assay. Doxorubicin was used as a reference positive control. Untreated cells and PCK3145-treated cells were harvested and the DNA was isolated. Isolated DNA was run on a 1.2% agarose gel containing Ethidium Bromide (EtBr). […] Lane 1 of the gel illustrated in FIG. 25 represents the DNA marker (100 base pair DNA ladder). Lane 2 of the gel illustrated in FIG. 25 represents a control of untreated PC-3 cells.

PC-3 cells [5] = test: Apoptosis assay by ELISA plus; type: cell-based, human; conditions: 22.5 μM to 90 μM, 72 hours
Procedure: The three polypeptides (SEQ ID NO: 4, SEQ ID NO: 5 and SEQ ID NO 6) and native PSP94 used here as a positive control were tested in ELISA plus assay to measure cell death through apoptosis. Briefly, the ELISA plus assay is a sandwich enzyme immunoassay able to measure mono- and oligonucleosomes present in the cytoplasmic fraction of cell lysate using two antibodies, one directed against DNA and the other directed against histones. The apoptotic cell death is characterized by activation of endogenous endonucleases (e.g., calcium- and magnesium-dependant), which cleave double-stranded DNA at the most accessible internucleosomal linker region, generating mono- and oligonucleosomes. The enrichment of mono- and oligonucleosomes in the cytoplasm of the apoptotic cells is due to the fact that DNA degradation occurs several hours before plasma membrane breakdown.
Four thousand cells were seeded in Costar 96 well cell culture flat bottom plates in RPMI supplemented media containing 50 μg/ml of bovine serum albumin (BSA) and 0.1 μM FeSO4. The PC-3 cells were treated with various concentrations (22.5 μM to 90 μM) of polypeptides for 72 hours. Apoptosis assay was done as per manufacturer's instructions using the ApopTag kit (Boeringher Mannheim).

Substance	decrease in colony number (PC-3 cells [1]; 1 μg/ml) [%]	decrease in colony number (PC-3 cells [1]; 10 μg/ml)	tumor growth (tumor volume) [2]	growth inhibition of PC-3 cells (FIG. 10) [3]	DNA laddering effect (PC-3 cells [4])	apoptotic cell death effect (PC-3 cells [5])
decapeptide: synthetic decapeptide as set forth in SEQ ID NO: 3, mimics the biological activity of native PSP94 (YTCSVSEPGI; decapeptide)	40	up to 60%	significant (p<0.05) tumor growth reduction			
polypeptide 76-94: PSP94 derived synthetic polypeptide from the carboxy terminus end, SEQ ID NO: 6 (IVVEKKDPKKTCSVSEWII; Polypeptide 76-94)				significant growth inhibition	induced a DNA laddering effect characteristic of apoptosis	dose dependent increase in the apoptotic cell death effect

Reference: patent US8551951B2, “Pharmaceutical preparations and methods for inhibiting tumors” (Aenorasis SA Pharmaceuticals and Medical Devices, priority 2000, dated 2013)
